Reference: patent US11672786B2, “Methods of treating diseases associated with repeat instability” (The Hospital for Sick Children, priority 2016, dated 2023)
Several values for one entry are separate records, joined by “and”; a condition that tells them apart may be missing. Equal values may be shown once.

Columns and labels:
[1] = system: HD fibroblasts (CAG)180; assay: small-pool PCR across HD repeat tract, HD primary fibroblasts GM09197; assay type: cell-based, human; details: 50 uM NA, 40 days
Description: The construction of the HT1080-(CAG)850 cell model was described previously (Sathasivam et al., 1997, Hum. Genet., 99:692-5). Briefly, HT1080 (ATCC) human fibrosarcoma cells were co-transfected with a plasmid (LC15-R) containing 800-850 (CTG)●(CAG) repeats (Nakatani et al., 2005, Nat. Chem. Biol., 1:39-43) and a plasmid encoding PhiC31 integrase. Transfection was performed with a Nucleofector (Lonza, Basel, Switzerland), and stably transfected clones were selected with puromycin. […] The HT1080-non-transcribing (CAG)850 cell model was established by transfecting a plasmid modified from pLC16 by inserting an additional SV40 polyadenylation signal downstream of the repeats (in addition to the original polyadenylation signals located upstream of the repeats), so that CAG/CTG repeats are floxed by transcription-terminator elements. The AttB-PhiC31 system has been widely used for single copy integration. […] The HT1080 model cells and an HD primary fibroblast cell line, GM09197 (Coriell Biorepository) with a large expanded allele of 180 CAG repeats and a non-expanded allele of 23 repeats (Sathasivam et al., 1997, Hum. Genet., 99:[…]), the HD primary fibroblast cell line, GM02191 (Coreill Biorepository) with an expanded allele of 43 CAG repeats and a non-expanded allele of 19 repeats, were cultured at 37° C. with 5% CO2 in Dulbecco's modified Eagle's medium supplemented with 10% fetal bovine serum and 1% penicillin/streptomycin. Cells were treated with or without continuous exposure to 50-μM NA for 30 days (HT1080 cells) or for 40 days (fibroblast cells). For experiments on non-proliferating cells, HT1080 cells were grown to confluence and then treated for the same period. WST-1 assay was performed according to the manufacturer's instructions (Roche, Basel, Switzerland). All cell lines were tested to be free of Mycoplasma. Three biological replicates were performed for each experiment.
Genomic DNA was extracted from HT1080-(CAG)850 clones and HD primary fibroblasts using the Gentra Puregene Cell Kit (Qiagen, Valencia, Calif.). The expanded (CTG)●(CAG) repeats were sized by small-pool PCR (sp-PCR) followed by Southern blot as described previously (Sathasivam et al., 1997, Hum. Genet., 99:692-5). For HT1080 models, small-pool PCR (spPCR) was performed with the input of 1.4-1.7 genome equivalents. The repeat size difference in the models is, at most, 3000 base-pairs, therefore, being strictly conservative, a bias toward amplifying the shorter allele can be possible, even under optimized PCR conditions described herein. For HD primary fibroblasts, sp-PCR & Southern blots were performed as described previously with slight modifications (Tome et al., 2013, PLoS Genet., 9:e1003280). Briefly, the PCR primers listed in Table 1 were used, and blots were hybridized with a DIG-labeled (CAG)7 locked nucleic acid probe (Nakamori et al. 2009, Neuromuscul. Disord., 19:759-62). At least 50 alleles were analyzed for each of the three experiments (more than 150 alleles for a total study). Repeat analyses are summarized in Table 2, compiled from complete small-pool-PCR datasets for each repetition of each experiment. For the histograms in FIGS. 4D, 4E, 10, 11, 5B, 5D, 5E, 14 and 15B, the Y-axis, “% of repeat population” was calculated by determining the proportion of >50 individual small-pool PCR reactions across the CAG repeat tract, that harbored a certain size of repeat product with a certain length. Cell clones were grown 30 or 40 days with or without NA (see, for example, Sathasivam et al., 1997, Hum. Genet., 99:692-5). Specifically, the histograms of repeat length distributions were from at least two different cell clones. Length distributions were determined as follows: Small-pool PCR followed by Southern blot for analysis of CAG/CTG repeat length.

[2] = system: single G-T mismatch; assay: in vitro repair assay by HeLa cell extracts, G-T mismatch; assay type: biochemical, human
Description: Panel A of […] is a schematic of the in vitro repair assay. Starting DNAs and repair products released the repeat-containing fragment, which is resolved on PAGE and assessed on a molar level by Southern blotting and densitometry. Repair of different DNA substrates containing a long (CAG)20 slip-out (Panel B of FIG. 3) long (CTG)20 slip-out (Panel C of FIG. 3), a single CAG slip-out (Panel D of FIG. 3) or a single G-T mismatch (Panel E of FIG. 3), in the absence or in the presence of NA. Slipped-DNA substrates were prepared from hybrids of (CAG)50●(CTG)30, (CAG)30●(CTG)50 or of (CAG)50●(CTG)49. Repair of the G-T mismatch reconstitutes a HindIII restriction site, as shown schematically. Graphs show percentage repair efficiencies to repaired product relative to all repeat-containing fragments in the lane, values are normalized to the NA-free efficiency. […]
To determine how the binding of NA to slipped DNA structures affects repair, a series of circular slipped heteroduplex substrates was made with an excess of repeats with a nick located either 5′ or 3′ of the slip-out (FIG. 3). […] All these substrates were processed in […] by HeLa extracts and then were assessed for repair. Repair products were analyzed by Southern blotting, probed for the repeat-containing fragment, and compared with starting material, which permitted quantitative assessment of repair efficiency at a molar level. […]

[3] = system: CAG-CAG; details: cited from earlier work
[4] = single experiments Ex 1-3, cut-off ±10 repeats

Substance: naphthyridine-azaquinolone
- % Contraction ([1]; Total): 31.2%
- % Expansion ([1]; Total): 13.6%
- % Unchanged ([1]; Total): 55.2%
- Average repeat size ([1]; Total): 177.5 number of repeats
- % Unchanged ([1]; single experiments Ex 1-3): 58.6% and 56.1% and 50.9%
- Average repeat size ([1]; single experiments Ex 1-3): 178.5 number of repeats and 176.5 number of repeats and 177.5 number of repeats
- % Contraction [1, 4]: 28.8% and 30.8% and 34.0%
- % Expansion [1, 4]: 12.6% and 13.1% and 15.1%
- effect on G-T mismatch repair [2]: no effect
- affinity of each NA molecule/CAG-CAG as Ka ([3]; estimated): 1.8e+06 M⁻¹
- Kd ([3]; estimated, read-out: affinity of each NA molecule/CAG-CAG as Kd): 560 nM
- ratio of NA molecules to 1 CAG-CAG ([3]; previously estimated binding stoichiometry): 2
